Reference: patent publication US11078170B2 (Assembly Biosciences, Inc., priority 2017, dated 2021)
pEC50: −log10 of the molar value.

Each compound was assayed on HBV viral production from HepAD38 cells (assay: Activity of test compounds on viral production from HepAD38 cells (viral load by qPCR of HBV core sequence in supernatant)). Settings: Hepatitis B virus, 120 h, 5 days incubation, HBV DNA in supernatant by qPCR, top concentration 10 μM, read-out: Viral Load EC50 Activity range.
Assay type: cell-based
Method in brief: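 HepAD38 cells, 50,000/well in tetracycline-free 2% FBS medium, treated 5 days at 37° C. with compound from 10 μM top concentration. HBV DNA in supernatant quantified by TaqMan qPCR of core sequence against DNA standards, relative to DMSO wells; CellTiter-Glo viability read in parallel. EC50/CC50 from four-parameter logistic fit.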
In the case of `CN1[C@@H](C(=O)Nc2ccc(F)c(Cl)c2)C[C@@H](c2ncc(-c3ccc(Br)c(F)c3)s2)NS1(=O)=O` [HBV-CSU-173-ISO-II, Cis-5-(5-(4-Bromo-3-fluorophenyl)thiazol-2-yl)-N-(3-chloro-4-fluorophenyl)-2-methyl-1,2,6-thiadiazinane-3-carboxamide 1,1-dioxide], the pEC50 was < 5.30.
In the case of `CN1[C@H](C(=O)Nc2ccc(F)c(Cl)c2)C[C@H](c2ncc(-c3cccnc3)s2)NS1(=O)=O` [HBV-CSU-175-ISO-I, Cis-N-(3-Chloro-4-fluorophenyl)-2-methyl-5-(5-(pyridin-3-yl)thiazol-2-yl)-1,2,6-thiadiazinane-3-carboxamide 1,1-dioxide], the pEC50 was > 6.00.
With `CN1[C@@H](C(=O)Nc2ccc(F)c(Cl)c2)C[C@@H](c2ncc(-c3cccnc3)s2)NS1(=O)=O` [HBV-CSU-175-ISO-II, Cis-N-(3-Chloro-4-fluorophenyl)-2-methyl-5-(5-(pyridin-3-yl)thiazol-2-yl)-1,2,6-thiadiazinane-3-carboxamide 1,1-dioxide] the pEC50 was > 6.00.
In the case of `CN1[C@H](C(=O)Nc2ccc(F)c(Cl)c2)C[C@H](c2ncc(-c3ccccn3)s2)NS1(=O)=O` [HBV-CSU-176-ISO-I, Cis-N-(3-chloro-4-fluorophenyl)-2-methyl-5-(5-(pyridin-2-yl)thiazol-2-yl)-1,2,6-thiadiazinane-3-carboxamide 1,1-dioxide], the pEC50 was > 6.00.
In the case of `CN1[C@@H](C(=O)Nc2ccc(F)c(Cl)c2)C[C@@H](c2ncc(-c3ccccn3)s2)NS1(=O)=O` [HBV-CSU-176-ISO-II, Cis-N-(3-chloro-4-fluorophenyl)-2-methyl-5-(5-(pyridin-2-yl)thiazol-2-yl)-1,2,6-thiadiazinane-3-carboxamide 1,1-dioxide], the pEC50 was < 5.30.
For `CN1[C@H](C(=O)Nc2ccc(F)c(Cl)c2)C[C@H](c2ncc(-c3cnn(C)c3)s2)NS1(=O)=O` [HBV-CSU-177-ISO-I, Cis-N-(3-Chloro-4-fluorophenyl)-2-methyl-5-(5-(1-methyl-1H-pyrazol-4-yl)thiazol-2-yl)-1,2,6-thiadiazinane-3-carboxamide 1,1-dioxide], the pEC50 was > 6.00.
With `CN1[C@H](C(=O)Nc2ccc(F)c(Cl)c2)C[C@H](c2ncc(-c3cccs3)s2)NS1(=O)=O` [HBV-CSU-178-ISO-I, Cis-N-(3-Chloro-4-fluorophenyl)-2-methyl-5-(5-(thiophen-2-yl)thiazol-2-yl)-1,2,6-thiadiazinane-3-carboxamide 1,1-dioxide] the pEC50 was > 6.00.
`CN1[C@@H](C(=O)Nc2ccc(F)c(Cl)c2)C[C@@H](c2ncc(-c3cccs3)s2)NS1(=O)=O` [HBV-CSU-178-ISO-II, Cis-N-(3-Chloro-4-fluorophenyl)-2-methyl-5-(5-(thiophen-2-yl)thiazol-2-yl)-1,2,6-thiadiazinane-3-carboxamide 1,1-dioxide] was tested, and the pEC50 was 5.30 to 6.00.
With `CN1[C@H](C(=O)Nc2ccc(F)c(Cl)c2)C[C@H](c2ncc(-c3ccc(NS(C)(=O)=O)cc3)s2)NS1(=O)=O` [HBV-CSU-179-ISO-I, Cis-N-(3-Chloro-4-fluorophenyl)-2-methyl-5-(5-(4-(methylsulfonamido)phenyl)thiazol-2-yl)-1,2,6-thiadiazinane-3-carboxamide 1,1-dioxide] the pEC50 was > 6.00.
`CN1[C@@H](C(=O)Nc2ccc(F)c(Cl)c2)C[C@@H](c2ncc(-c3ccc(NS(C)(=O)=O)cc3)s2)NS1(=O)=O` [HBV-CSU-179-ISO-II, Cis-N-(3-Chloro-4-fluorophenyl)-2-methyl-5-(5-(4-(methylsulfonamido)phenyl)thiazol-2-yl)-1,2,6-thiadiazinane-3-carboxamide 1,1-dioxide] gave a pEC50 of 5.30 to 6.00.
In the case of `COc1ccc(C2CC(C(=O)Nc3ccc(F)c(Cl)c3)N(C)S(=O)(=O)N2)cc1` (stereo not drawn) [HBV-CSU-200, Cis-N-(3-Chloro-4-fluorophenyl)-5-(4-methoxyphenyl)-2-methyl-1,2,6-thiadiazinane-3-carboxamide 1,1-dioxide], the pEC50 was > 6.00.
`CN1C(C(=O)Nc2ccc(F)c(Cl)c2)CC(c2ccc(O)cc2)NS1(=O)=O` (stereo not drawn) [HBV-CSU-201, Cis-N-(3-Chloro-4-fluorophenyl)-5-(4-hydroxyphenyl)-2-methyl-1,2,6-thiadiazinane-3-carboxamide 1,1-dioxide] was tested, and the pEC50 was > 6.00.
`CN1C(C(=O)Nc2ccc(F)c(Cl)c2)CC(c2ccc(Br)cc2)NS1(=O)=O` (stereo not drawn) [HBV-CSU-202, Cis-5-(4-Bromophenyl)-N-(3-chloro-4-fluorophenyl)-2-methyl-1,2,6-thiadiazinane-3-carboxamide 1,1-dioxide] was tested, and the pEC50 was > 6.00.
With `COc1cccc(C2CC(C(=O)Nc3ccc(F)c(Cl)c3)N(C)S(=O)(=O)N2)c1` (stereo not drawn) [HBV-CSU-204, Cis-N-(3-Chloro-4-fluorophenyl)-5-(3-methoxyphenyl)-2-methyl-1,2,6-thiadiazinane-3-carboxamide 1,1-dioxide] the pEC50 was > 6.00.
For `CN1C(C(=O)Nc2ccc(F)c(Cl)c2)CC(c2cccc(O)c2)NS1(=O)=O` (stereo not drawn) [HBV-CSU-205, Cis-N-(3-chloro-4-fluorophenyl)-5-(3-hydroxyphenyl)-2-methyl-1,2,6-thiadiazinane-3-carboxamide 1,1-dioxide], the pEC50 was > 6.00.
In the case of `CN(C)CCCOc1ccc([C@@H]2C[C@H](C(=O)Nc3ccc(F)c(Cl)c3)N(C)S(=O)(=O)N2)cc1` [HBV-CSU-208-ISO-I, Cis-N-(3-chloro-4-fluorophenyl)-5-(4-(3-(dimethylamino)propoxy)phenyl)-2-methyl-1,2,6-thiadiazinane-3-carboxamide 1,1-dioxide], the pEC50 was < 5.30.
In the case of `CN(C)CCCOc1ccc([C@H]2C[C@@H](C(=O)Nc3ccc(F)c(Cl)c3)N(C)S(=O)(=O)N2)cc1` [HBV-CSU-208-ISO-II, Cis-N-(3-chloro-4-fluorophenyl)-5-(4-(3-(dimethylamino)propoxy)phenyl)-2-methyl-1,2,6-thiadiazinane-3-carboxamide 1,1-dioxide], the pEC50 was > 6.00.
For `CN(C)CCCOc1cccc(C2CC(C(=O)Nc3ccc(F)c(Cl)c3)N(C)S(=O)(=O)N2)c1` (stereo not drawn) [HBV-CSU-209, Cis-N-(3-Chloro-4-fluorophenyl)-5-(3-(3-(dimethylamino)propoxy)phenyl)-2-methyl-1,2,6-thiadiazinane-3-carboxamide 1,1-dioxide], the pEC50 was > 6.00.
For `COCCN1[C@@H](C(=O)Nc2ccc(F)c(Cl)c2)C[C@@H](c2ccc(F)cc2)NS1(=O)=O` [HBV-CSU-210-ISO-I, Cis-N-(3-Chloro-4-fluorophenyl)-5-(4-fluorophenyl)-2-(2-methoxyethyl)-1,2,6-thiadiazinane-3-carboxamide 1,1-dioxide], the pEC50 was < 5.30.
For `COCCN1[C@H](C(=O)Nc2ccc(F)c(Cl)c2)C[C@H](c2ccc(F)cc2)NS1(=O)=O` [HBV-CSU-210-ISO-II, Cis-N-(3-Chloro-4-fluorophenyl)-5-(4-fluorophenyl)-2-(2-methoxyethyl)-1,2,6-thiadiazinane-3-carboxamide 1,1-dioxide], the pEC50 was > 6.00.
For `CN1[C@H](C(=O)Nc2ccc(F)c(Br)c2)C[C@H](c2ccc(F)cc2)NS1(=O)=O` [HBV-CSU-211-ISO-I, Cis-N-(3-Bromo-4-fluorophenyl)-5-(4-fluorophenyl)-2-methyl-1,2,6-thiadiazinane-3-carboxamide 1,1-dioxide], the pEC50 was > 6.00.
For `CN1[C@@H](C(=O)Nc2ccc(F)c(Br)c2)C[C@@H](c2ccc(F)cc2)NS1(=O)=O` [HBV-CSU-211-ISO-II, Cis-N-(3-Bromo-4-fluorophenyl)-5-(4-fluorophenyl)-2-methyl-1,2,6-thiadiazinane-3-carboxamide 1,1-dioxide], the pEC50 was < 5.30.
For `CN1[C@H](C(=O)Nc2cc(F)c(F)c(F)c2)C[C@H](c2ccc(F)cc2)NS1(=O)=O` [HBV-CSU-212-ISO-I, Cis-5-(4-Fluorophenyl)-2-methyl-N-(3,4,5-trifluorophenyl)-1,2,6-thiadiazinane-3-carboxamide 1,1-dioxide], the pEC50 was > 6.00.
In the case of `CN1[C@@H](C(=O)Nc2cc(F)c(F)c(F)c2)C[C@@H](c2ccc(F)cc2)NS1(=O)=O` [HBV-CSU-212-ISO-II, Cis-5-(4-Fluorophenyl)-2-methyl-N-(3,4,5-trifluorophenyl)-1,2,6-thiadiazinane-3-carboxamide 1,1-dioxide], the pEC50 was < 5.30.
In the case of `CN1[C@@H](C(=O)Nc2ccc(F)c(Cl)c2)C[C@@H](c2ccc(C(N)=O)cc2)NS1(=O)=O` [HBV-CSU-214-ISO-I, Cis-5-(4-Carbamoylphenyl)-N-(3-chloro-4-fluorophenyl)-2-methyl-1,2,6-thiadiazinane-3-carboxamide 1,1-dioxide], the pEC50 was < 5.30.
With `CN1[C@H](C(=O)Nc2ccc(F)c(Cl)c2)C[C@H](c2ccc(C(N)=O)cc2)NS1(=O)=O` [HBV-CSU-214-ISO-II, Cis-5-(4-Carbamoylphenyl)-N-(3-chloro-4-fluorophenyl)-2-methyl-1,2,6-thiadiazinane-3-carboxamide 1,1-dioxide] the pEC50 was > 6.00.
`COc1ccccc1C1CC(C(=O)Nc2ccc(F)c(Cl)c2)N(C)S(=O)(=O)N1` (stereo not shown) [HBV-CSU-215] was tested, and the pEC50 was 5.30 to 6.00.
`CN1[C@@H](C(=O)Nc2ccc(F)c(Cl)c2)C[C@@H](c2ccc(OCC(=O)O)cc2)NS1(=O)=O` [HBV-CSU-216-ISO-II, Cis-2-(4-(5-((3-Chloro-4-fluorophenyl)carbamoyl)-6-methyl-1,1-dioxido-1,2,6-thiadiazinan-3-yl)phenoxy)acetic acid] was tested, and the pEC50 was < 5.30.
In the case of `CN1[C@H](C(=O)Nc2ccc(F)c(Cl)c2)C[C@H](c2ccc(C(=O)O)cc2)NS1(=O)=O` [HBV-CSU-218-ISO-I, Cis-4-(5-((3-Chloro-4-fluorophenyl)carbamoyl)-6-methyl-1,1-dioxido-1,2,6-thiadiazinan-3-yl)benzoic acid], the pEC50 was < 5.30.
For `CN1[C@@H](C(=O)Nc2ccc(F)c(Cl)c2)C[C@@H](c2ccc(C(=O)O)cc2)NS1(=O)=O` [HBV-CSU-218-ISO-II, Cis-4-(5-((3-Chloro-4-fluorophenyl)carbamoyl)-6-methyl-1,1-dioxido-1,2,6-thiadiazinan-3-yl)benzoic acid], the pEC50 was 5.30 to 6.00.
With `CN1C(C(=O)Nc2ccc(F)c(Cl)c2)CC(c2ccc(O)c(Cl)c2)NS1(=O)=O` (stereo not drawn) [HBV-CSU-220, Cis-N-(3-chloro-4-fluorophenyl)-5-(3-chloro-4-hydroxyphenyl)-2-methyl-1,2,6-thiadiazinane-3-carboxamide 1,1-dioxide] the pEC50 was > 6.00.
